Measurements published in PMC11145868, “Protein target similarity is positive predictor of in vitro antipathogenic activity: a drug repurposing strategy for Plasmodium falciparum” (Journal of Cheminformatics, 2024).
Counter-ions that a name gives are not always drawn. Like-named read-outs stand apart in the source and are kept apart here. Numbered stars: 1 amine (or outer) side, 2 acyl side, 3 side chain; on linkers, the order of the positions; unused ones are H or OH. Bridge positions count the residues as written; N and C are the ends. Square brackets hold non-standard residues; d marks the D form. Peptide text beside a SMILES is read from it. I, II: the chains in the order shown. Actinocin(9to1) = Cc1c2oc3c(C)ccc(C(=O)[*:1])c3nc-2c(C(=O)[*:2])c(N)c1=O; NMeV = CN[C@H](C(=O)O)C(C)C; Sar = CNCC(=O)O

How the values were obtained:
P. falciparum Dd2-HLH [1] = experiment: microbe, parasite or virus in culture; assay type: cell-based, Plasmodium falciparum
[2] = tested on: P. berghei-luciferase sporozoites; experiment: microbe, parasite or virus in culture; assay type: cell-based, Plasmodium berghei
in vitro = settings: human
P. falciparum Dd2-HLH [3] = experiment: microbe, parasite or virus in culture; assay type: cell-based, Plasmodium falciparum; remark: listed apart in the source
HEK293T cells = experiment: Mammalian cell cytotoxicity assay, HEK293T (CellTiter-Glo, 72 h); settings: read-out: HEK CC50
[4] = Mammalian cell cytotoxicity assay, HepG2 (CellTiter-Glo, 72 h); settings: human
[5] = Mammalian cell cytotoxicity assay, HEK293T (CellTiter-Glo, 72 h); settings: human, HEK293T cells
[6] = Plasmodium falciparum, DD2, 48 h, read-out: Blood stage 48h EC50
[7] = Plasmodium berghei, HepG2, liver-stage parasites, 48 hours in culture, read-out: Liver stage 48h EC50
[8] = Plasmodium falciparum, DD2, 72 h, read-out: Blood stage 72h EC50
[9] = P. falciparum blood-stage parasites, 48 hours in culture, read-out: Blood stage 48h EC50
[10] = liver-stage parasites, 48 hours in culture, read-out: Liver stage 48h EC50
[11] = P. falciparum blood-stage parasites, 72 hours in culture, read-out: Blood stage 72h EC50
[12] = Plasmodium falciparum, DD2, Hec50, 48 h, read-out: Blood stage 48 h EC50
[13] = Plasmodium berghei, liver-stage parasites, 48 h in culture, read-out: Liver 48 h EC50
[14] = Plasmodium falciparum, DD2, blood-stage parasites, 48 h in culture, read-out: Blood stage 48 h EC50
[15] = Plasmodium falciparum, DD2, blood-stage parasites, 72 h in culture, read-out: Blood stage 72 h EC50
[16] = Plasmodium falciparum, DD2, P. falciparum blood-stage parasites, 72 hours in culture, read-out: Blood stage 72h EC50

Compound | EC50 [2, 7] | CC50 (in vitro) | EC50 (P. falciparum Dd2-HLH [3]; [8]) | EC50 (P. falciparum Dd2-HLH [1]; [9]) | EC50 [2, 10] | EC50 (P. falciparum Dd2-HLH [3]; [11]) | other results
O=C1c2ccccc2-n2c1nc1ccccc1c2=O [Tryptanthrin] | 41 nM | > 9950 nM | 562 nM |  |  |  | EC50 (P. falciparum Dd2-HLH [1]; [6]): 737 nM
CN[C@@H]1C[C@H]2O[C@@](C)([C@@H]1OC)n1c3ccccc3c3c4c(c5c6ccccc6n2c5c31)C(=O)N[C@H]4O [UCN-01] |  |  |  | 79 nM | 2150 nM | 488 nM | CC50 (HEK293T cells; HEK293T cytotoxicity): 74 nM
O=C(CC1NCCCC1O)Cn1cnc2cc(Br)c(Cl)cc2c1=O (centres unmarked) [Halofuginone, reference compound] |  |  | 1 nM |  |  |  | EC50 (P. falciparum Dd2-HLH [1]; [12]): 1 nM; EC50 [2, 13]: 70 nM; CC50 at 72 h (in vitro): 88 nM
CC(=O)[C@]1(O)Cc2c(O)c3c(c(O)c2[C@@H](O[C@H]2C[C@H](N)[C@H](O)[C@H](C)O2)C1)C(=O)c1ccccc1C3=O [Idarubicin] | 843 nM | 36 nM | 302 nM |  |  |  | EC50 (P. falciparum Dd2-HLH [1]; [6]): 1870 nM
O=C(Nc1ccccc1)N[C@@H]1C(=O)N(CC23CC4CC(CC(C4)C2)C3)c2ccccc2N(c2ccccc2)C1=O [GV 150013] |  |  |  |  | > 10000 nM | 253 nM | CC50 (HEK293T cells; HEK293T cells): > 9950 nM
SN-38 |  |  |  | 507 nM | 1010 nM | 358 nM | CC50 (HEK293T cells; HEK293T cells): 79 nM
Cc1[nH]c2ccccc2c1CCNCc1ccc(/C=C/C(=O)NO)cc1 [Panobinostat Lactate] |  |  |  | 20 nM | 131 nM | 51 nM | CC50 (HEK293T cells; HEK293T cells): 78 nM
Cc1c2oc3c(C)ccc(C(=O)N[C@@H]4C(=O)N[C@H](C(C)C)C(=O)N5CCC[C@H]5C(=O)N(C)CC(=O)N(C)[C@@H](C(C)C)C(=O)O[C@@H]4C)c3nc-2c(C(=O)N[C@@H]2C(=O)N[C@H](C(C)C)C(=O)N3CCC[C@H]3C(=O)N(C)CC(=O)N(C)[C@@H](C(C)C)C(=O)O[C@@H]2C)c(N)c1=O [Dactinomycin, reference compound] (I: T[dV]P[Sar][NMeV] / II: T[dV]P[Sar][NMeV]; ester I:1-I:C, II:1-II:C; linker I:N-II:N via Actinocin(9to1)) |  | 9 nM |  |  |  |  | EC50 (P. falciparum Dd2-HLH [1]; [14]): 3 nM; CC50 at 72 h [4]: 3 nM; EC50 [2, 13]: 73 nM; EC50 (P. falciparum Dd2-HLH [3]; [15]): 8 nM
CO[C@H]1/C=C\C=C(/C)C(=O)NC2=CC(=O)C(NCCN(C)C)=C(C[C@@H](C)C[C@H](OC)[C@H](O)[C@@H](C)/C=C(\C)[C@@H]1OC(N)=O)C2=O [Alvespimycin hydrochloride] | 129 nM | 164 nM | 273 nM |  |  |  | EC50 (P. falciparum Dd2-HLH [1]; [6]): 159 nM
COc1cc2c(Nc3ccc(NC(=O)c4ccccc4)cc3)ncnc2cc1OCCCN1CCOCC1 [ZM447439] |  |  |  | 452 nM | 4330 nM | 643 nM | CC50 (HEK293T cells; HEK293T cytotoxicity): > 9950 nM
CN(C)c1ccc2c(c1)Sc1cc(N(C)C)ccc1N2 [Leuco methylthioninium] |  |  |  |  |  |  | CC50 (HEK293T cells; HEK293T cells): 3490 nM; EC50 (P. falciparum Dd2-HLH [1]; read-out: Blood stage 48h EC50): 96 nM; EC50 ([2]; read-out: Liver stage 48h EC50): 3920 nM; EC50 (P. falciparum Dd2-HLH [3]; read-out: Blood stage 72h EC50): 209 nM
Cc1ncc(NC(=O)c2ccc(CN3CCN(C)CC3)c(C(F)(F)F)c2)cc1Nc1nccc(-c2cccnc2)n1 [Flumatinib mesylate] |  |  |  | 85 nM | > 10000 nM | 213 nM | CC50 (HEK293T cells; HEK293T cells): > 9950 nM
COC(=O)C[C@](O)(CCCC(C)(C)O)C(=O)O[C@@H]1C(OC)=C[C@]23CCCN2CCc2cc4c(cc2[C@H]13)OCO4 [Homoharringtonine, reference compound] |  | 32 nM | 7 nM |  |  |  | EC50 (P. falciparum Dd2-HLH [1]; [12]): 6 nM; EC50 [2, 13]: 26 nM
C[C@@H](Oc1cc(-c2cnn(C3CCNCC3)c2)cnc1N)c1c(Cl)ccc(F)c1Cl [Crizotinib] | 8520 nM | > 9950 nM | 827 nM |  |  |  | EC50 (P. falciparum Dd2-HLH [1]; [6]): 225 nM
Cc1nc(N2CCN(Cc3ccc(F)cc3)C2=O)sc1C(=O)NCc1cccnc1 [XEN-723] |  |  |  | 158 nM | > 10000 nM | 334 nM | CC50 (HEK293T cells; HEK293T cells): 57 nM
CCc1ccc(OCc2ccccc2C(=O)Nc2ccc3nc(C)cc(N)c3c2)cc1 [JTC-801] |  |  |  | 123 nM | 429 nM | 635 nM | CC50 (HEK293T cells; HEK293T cytotoxicity): 1810 nM
C[C@@H]1C[C@@H]([C@H](O)CC2CC(=O)NC(=O)C2)C(=O)[C@@H](C)C1 [Cycloheximide] | 109 nM | 759 nM |  |  |  |  | EC50 (P. falciparum Dd2-HLH [1]; Plasmodium falciparum, DD2, P. falciparum blood-stage parasites, 48 hours in culture, read-out: Blood stage 48h EC50): 178 nM; EC50 (P. falciparum Dd2-HLH [3]; [16]): 301 nM
COc1cccc2c1C(=O)c1c(O)c3c(c(O)c1C2=O)C[C@@](O)(C(=O)CO)C[C@@H]3O[C@H]1C[C@H](N2CCO[C@H](OC)C2)[C@H](O)[C@H](C)O1 [Nemorubicin, reference compound] |  | 5 nM |  |  |  |  | EC50 (P. falciparum Dd2-HLH [1]; [14]): 4 nM; CC50 at 72 h [4]: 2 nM; EC50 [2, 13]: 9 nM; EC50 (P. falciparum Dd2-HLH [3]; [15]): 9 nM
CS[C@H]1SC[C@H]2C(=O)N(C)[C@@H](C(C)C)C(=O)OC[C@@H](NC(=O)c3cnc4ccccc4n3)C(=O)N[C@@H](C)C(=O)N(C)[C@@H]1C(=O)N(C)[C@@H](C(C)C)C(=O)OC[C@@H](NC(=O)c1cnc3ccccc3n1)C(=O)N[C@@H](C)C(=O)N2C [Echinomycin] | 2 nM | 1 nM |  |  |  |  | CC50 at 72 h [4]: 1 nM; EC50 (P. falciparum Dd2-HLH [3]; [16]): 3 nM
COc1cc2nc(-c3ccc(N4CCN(C)CC4)cc3)nc(NCCN3CCOCC3)c2cc1OC [CPG-52364] |  |  |  | 100 nM | 1100 nM | 381 nM | CC50 (HEK293T cells; HEK293T cells): 1640 nM
Cc1cc(-c2cc(OC(=O)c3ccccc3)ccc2Cl)cc2nnc(Nc3ccc(OCCN4CCCC4)cc3)nc12 [TG-100801] |  |  |  | 68 nM | 1410 nM | 205 nM | CC50 (HEK293T cells; HEK293T cytotoxicity): > 9950 nM
COc1ccc(-c2ccc3ncc4c(c3c2)n(-c2ccc(N3CCNCC3)c(C(F)(F)F)c2)c(=O)n4C)cn1 [NVP-BGT226, reference compound] | 1 nM |  | 6 nM |  |  |  | CC50 at 72 h [5]: 35 nM; EC50 (P. falciparum Dd2-HLH [1]; [6]): 1 nM; EC50 (P. falciparum Dd2-HLH [1]; [12]): 0.6 nM; CC50 at 72 h ([4]; HepG2 cells): 3 nM; EC50 [2, 13]: 0.5 nM
N[C@@H]1[C@H]2CN(c3nc4c(cc3F)c(=O)c(C(=O)O)cn4-c3ccc(F)cc3F)C[C@@H]12 [Trovafloxacin mesilate, reference compound] | > 10000 nM | > 9950 nM | 669 nM |  |  |  | EC50 (P. falciparum Dd2-HLH [1]; Plasmodium falciparum, DD2, read-out: EC50, antiplasmodial drug sensitivity assays in bloodstage): 9950 nM
COc1ccc(-c2nc(N3CCOCC3)c3sc(CN(C)c4ncc(C(=O)NO)cn4)cc3n2)cn1 [CUDC-907, reference compound] |  |  | 18 nM |  |  |  | CC50 at 72 h [5]: 27 nM; EC50 (P. falciparum Dd2-HLH [1]; [6]): 8 nM; EC50 (P. falciparum Dd2-HLH [1]; [12]): 7.5 nM; CC50 at 72 h ([4]; HepG2 cells): 3 nM; EC50 [2, 13]: 39 nM
CC[C@@]1(O)C[C@H](O[C@H]2C[C@H](N(C)C)[C@H](O[C@H]3C[C@H](O)[C@H](O[C@H]4CCC(=O)[C@H](C)O4)[C@H](C)O3)[C@H](C)O2)c2c(cc3c(c2O)C(=O)c2c(O)cccc2C3=O)[C@H]1C(=O)OC [Aclarubicin] | 2230 nM | 166 nM | 302 nM |  |  |  | EC50 (P. falciparum Dd2-HLH [1]; [6]): 154 nM
XL-888 |  |  |  | 201 nM | 99 nM | 348 nM | CC50 (HEK293T cells; HEK293T cytotoxicity): 47 nM
Cc1ccc(CCCO)c(NCc2ccc3nc(NCCCN4CCOCC4)n(Cc4nc(C)ccc4O)c3c2)c1 [TMC-353121] |  |  |  | 319 nM | > 10000 nM | 650 nM | CC50 (HEK293T cells; HEK293T cells): > 9950 nM
COCCNCc1ccc(-c2cc3nccc(Oc4ccc(NC(=O)C5(C(=O)Nc6ccc(F)cc6)CC5)cc4F)c3s2)nc1 [MG-516] | 2180 nM |  | 673 nM |  |  |  | CC50 at 72 h [5]: 2250 nM; EC50 (P. falciparum Dd2-HLH [1]; [6]): 144 nM; CC50 at 72 h ([4]; HepG2 cells): 1460 nM
